# How the values were obtained:
# [1] = system: IP-Implanted L1210 Leukemia; experiment: Dose-response against IP-implanted L1210 leukemia, IP treatment Days 1, 5 and 9, 30-day test (Table 2); format: in vivo, CD2Fl male mice; conditions: for Optimal dose (dose producing best therapeutic response): day 1, 5 and 9 schedule
# Method: (§1) Biological properties of the compounds of the present invention were determined following the protocol described in Cancer Chemotherapy Reports, Vol. 3, No. 3, 1972 which report is incorporated herein by reference.
# (§2) This experiment (A8-00005 3LE31) was conducted at the Southern Research Institute, Birmingham, Ala. under the supervision of Dr. Daniel Griswold. The protocols were the same as those published previously (Geran et al., Cancer Chemotherapy Reports 3: No. 2, 1972 [Attachment 11]). 10^5 cells were implanted intraperitoneally in CD2Fl male mice on Day 0. Drug treatments were given intraperitoneally as single injections at the doses indicated on Days 1, 5 and 9 after tumor implantation. The diluent was saline except for NSC-271674 where 5% sodium bicarbonate was used. All drugs were prepared fresh on the day of injection, and all were administered in solution. Median survival times for both control and drug-treated mice were determined and expressed as a percentage (% T/C). Body weights were determined on Day 5 and expressed as a weight difference (body weight of the drug-treated animals minus that of the control animals in grams) (T-C). The diluent control animals lived a median of 8.4 days and gained 1.9 grams by Day 5 in this experiment. All animals, including Day 30 survivors, were used in the calculation of median survival times. The log10 change in tumor burden refers to the net log change in viable tumor cell population at the end of therapy (Rx) as compared to the start of therapy; e.g., a […] means that there was a […] and a 3 log change means there was a 1000-fold increase in tumor burden at the end of therapy. The tumor burden at the start of therapy was about 6.1×10^5 cells in this experiment.
# IP L1210 = experiment: Activity against IP-implanted L1210 leukemia sensitive to cisplatin, 60 day test (Table 4); format: in vivo, Female CD2Fl mice
# Method: as §1
# Other known mechanisms of resistance for other classes of agents, such as gene amplification or target enzyme change or amplication, also need to be explored. The experiments summarized in Table 3 were conducted at the same time against both sublines using the same drug preparations. […] These experiments were repeated in a second laboratory as documented in Table 4. However, in these experiments the animals were held for 60 rather than 30 days to evaluate whether or not long-term survivors are produced after drug treatment in a more challenging setting.
# as §2
# These experiments (23-00081 3LE31 and 23-00003 3DP3l) were conducted concurrently at the Mason Research Institute, Worcester, MA under the supervision of Dr. William Cobb. See Table 4 for experimental details. The diluent control animals bearing L1210 leukemia lived a median of 8.3 days and gained 1.6 grams by Day 5. […] Female CD2Fl mice were used for these experiments.
# [2] = system: SC Implanted L1210 Leukemia; experiment: Activity against SC implanted L1210 leukemia following intravenous administration, once daily Days 1-5 (Table 5); format: in vivo, CD2Fl male mice; conditions: for Optimal Dose: IV once daily Days 1-5
# Method: as §1
# In another type of experiment the same platinum complexes were directly compared against the SC implanted L1210 following intravenous administration (Table 5).
# This experiment (A8-00004 3LE32) was conducted at the Southern Research Institute, Birmingham, Ala. under the supervision of Dr. Daniel Griswold. The protocols were the same as those published previously (Attachment 11). 10^6 cells were implanted subcutaneously in CD2Fl male mice on Day 0. Drug treatments were given intravenously once daily at the doses indicated on Days 1-5 after tumor implantation. The dosage range tested included the highest and lowest doses indicated in the Table as well as intermediate values which were determined by multiplying each dose in turn by 0.5 starting with the highest dose. The diluent was saline except for NSC-271674 for which 5% sodium bicarbonate was used. All drugs were prepared fresh on the day of injection, and all were administered in solution. Median survival times for both control and drug-treated mice were determined and expressed as a percentage (% T/C). Body weights were determined on Day 5 and expressed as a weight difference (body weight of the drug-treated animals minus that of the control animals in grams) (T-C).
Compound,30-Day Survivors/Total ([1]; 1 mg/kg/dose IP),Approx. Log10 Change in Tumor Burden at End of Rx ([1]; 1 mg/kg/dose IP) [log10],Body Weight Difference ([1]; 1 mg/kg/dose IP) [Grams],Median % T/C ([1]; 1 mg/kg/dose IP) [%],30-Day Survivors/Total ([1]; 2 mg/kg/dose IP),Approx. Log10 Change in Tumor Burden at End of Rx ([1]; 2 mg/kg/dose IP) [log10],Body Weight Difference ([1]; 2 mg/kg/dose IP) [Grams],Median % T/C ([1]; 2 mg/kg/dose IP) [%],30-Day Survivors/Total ([1]; 4 mg/kg/dose IP),Approx. Log10 Change in Tumor Burden at End of Rx ([1]; 4 mg/kg/dose IP) [log10],Body Weight Difference ([1]; 4 mg/kg/dose IP) [Grams],Median % T/C ([1]; 4 mg/kg/dose IP) [%],30-Day Survivors/Total ([1]; 8 mg/kg/dose IP),Approx. Log10 Change in Tumor Burden at End of Rx ([1]; 8 mg/kg/dose IP) [log10],Body Weight Difference ([1]; 8 mg/kg/dose IP) [Grams],Median % T/C ([1]; 8 mg/kg/dose IP) [%],30-Day Survivors/Total ([1]; 16 mg/kg/dose IP),Approx. Log10 Change in Tumor Burden at End of Rx ([1]; 16 mg/kg/dose IP) [log10],Body Weight Difference ([1]; 16 mg/kg/dose IP) [Grams],Median % T/C ([1]; 16 mg/kg/dose IP) [%],further results
"[Cl][Pt-2]1([Cl])([Cl])([Cl])[NH2+][C@@H]2CCCC[C@H]2[NH2+]1 [trans (l), (1R,2R)-Tetrachloro-trans-1,2-cyclohexanediammine platinum (IV)]",0/6,~2.7,-0.4,134,0/6,~1.7,-0.9,170,2/6,~-2.8,-1.2,238,1/6,~-5.7,-2.5,319,0/6,~3.0,-3.5,119,"Body Weight Difference ([1]; 8 mg/kg/dose IP, listed as trans l): less than -4 Grams; Optimal dose (dose producing best therapeutic response) [1]: 8 mg/kg/injection; 60 Day Survivors/Total (IP L1210; 1 mg/kg/dose): 0/10; Body Weight Difference (IP L1210; 1 mg/kg/dose): -0.4 Grams; Median % T/C (IP L1210; 1 mg/kg/dose): 146%; 60 Day Survivors/Total (IP L1210; 2 mg/kg/dose): 2/10; Body Weight Difference (IP L1210; 2 mg/kg/dose): -0.8 Grams; Median % T/C (IP L1210; 2 mg/kg/dose): 216%; 60 Day Survivors/Total (IP L1210; 4 mg/kg/dose): 0/10; Body Weight Difference (IP L1210; 4 mg/kg/dose): -2.2 Grams; Median % T/C (IP L1210; 4 mg/kg/dose): 208%; 60 Day Survivors/Total (IP L1210; 8 mg/kg/dose): 1/10; Body Weight Difference (IP L1210; 8 mg/kg/dose): -3.7 Grams; Median % T/C (IP L1210; 8 mg/kg/dose): 228%; 60 Day Survivors/Total (IP L1210; 16 mg/kg/dose): 0/10; Body Weight Difference (IP L1210; 16 mg/kg/dose): -5.9 Grams; Median % T/C (IP L1210; 16 mg/kg/dose): Toxic; Optimal Dose [2]: 2.5 mg/kg/inj"
"Tetrachloro-cis-1,2-cyclohexanediamine platinum (IV)",0/6,~2.8,-0.8,128,0/6,~2.6,-1.3,140,0/6,~2.4,-1.1,152,0/6,~-0.7,-1.8,205,2/6,~-5.7,-3.6,333,"Body Weight Difference ([1]; 16 mg/kg/dose IP, listed as cis): less than -4 Grams; Optimal dose (dose producing best therapeutic response) [1]: 16 mg/kg/injection; 60 Day Survivors/Total (IP L1210; 2 mg/kg/dose): 0/10; Body Weight Difference (IP L1210; 2 mg/kg/dose): -0.9 Grams; Median % T/C (IP L1210; 2 mg/kg/dose): 143%; 60 Day Survivors/Total (IP L1210; 4 mg/kg/dose): 2/10; Body Weight Difference (IP L1210; 4 mg/kg/dose): -0.9 Grams; Median % T/C (IP L1210; 4 mg/kg/dose): 250%; 60 Day Survivors/Total (IP L1210; 8 mg/kg/dose): 2/10; Median % T/C (IP L1210; 8 mg/kg/dose): 313%; 60 Day Survivors/Total (IP L1210; 16 mg/kg/dose): 0/10; Body Weight Difference (IP L1210; 16 mg/kg/dose): -5.6 Grams; Median % T/C (IP L1210; 16 mg/kg/dose): 98%; 60 Day Survivors/Total (IP L1210; 32 mg/kg/dose): 0/10; Body Weight Difference (IP L1210; 32 mg/kg/dose): -5.6 Grams; Median % T/C (IP L1210; 32 mg/kg/dose): Toxic; Body Weight Difference ([2]; 5 mg/kg/inj IV): -3.3 Grams; Median % T/C ([2]; 5 mg/kg/inj IV): 133%; Median Survival Time ([2]; 5 mg/kg/inj IV): 13.7 days; Optimal Dose [2]: 5.0 mg/kg/inj"
